# Patent publication US8829009B2, “Substituted 2-amino-3-(sulfonyl)pyrazolo[1,5-a]pyrimidines - serotonin 5-HT6 receptor antagonists, method for use thereof” (priority 2008, dated 2014)
# What was measured:
# 5-HT6 receptor [1] = target: T1, 5-HT6 receptor (Homo sapiens (Human), UniProt P50406); assay: Functional assay: inhibition of serotonin-induced intracellular cAMP in HEK 293 cells expressing 5-HT6 receptor (LANCE cAMP); type: cell-based; conditions: for inhibition at 10 µM: HEK293, read-out: % inhibition of 5-HT6 receptors, 10 μM solutions of compounds; for IC50: HEK 293 cells expressing 5-HT6 receptor, read-out: IC50 inhibition of serotonin 5-HT6 receptors in the setting of functional assay (serotonin-stimulated intracellular cAMP production)
# T1 sequence (P50406 whole entry): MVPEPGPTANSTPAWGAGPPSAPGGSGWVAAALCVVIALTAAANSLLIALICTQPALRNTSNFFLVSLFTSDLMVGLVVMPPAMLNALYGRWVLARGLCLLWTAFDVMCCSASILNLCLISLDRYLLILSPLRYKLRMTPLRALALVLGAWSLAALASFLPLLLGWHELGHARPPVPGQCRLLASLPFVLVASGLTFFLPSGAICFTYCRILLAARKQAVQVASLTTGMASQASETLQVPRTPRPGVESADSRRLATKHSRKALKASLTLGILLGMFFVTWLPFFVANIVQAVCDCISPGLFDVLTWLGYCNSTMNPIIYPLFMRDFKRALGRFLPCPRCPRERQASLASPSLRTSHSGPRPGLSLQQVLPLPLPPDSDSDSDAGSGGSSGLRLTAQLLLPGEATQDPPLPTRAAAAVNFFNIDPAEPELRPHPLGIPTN
# Method: Determination of antagonistic activity of compounds of general formula 1 towards 5-HT6 receptors. Compounds of general formula 1 were tested for their ability to prevent 5-HT6 receptor activation by serotonin. HEK 293 cells (cells of human embryo's kidney) with artificially expressed 5-HT6 receptor, activation of which by serotonin leads to increasing the concentration of intracellular cAMP were used. The content of intracellular cAMP was determined using reagent kit LANCE cAMP (PerkinElmer) according to the method described by the manufacturer of the kit [http://las.perkinelmer.com/content/Manuals/MAN_LANCEcAMP384KitUser.pdf].
# Effectiveness of compounds was estimated by their ability to reduce the content of intracellular cAMP induced by serotonin.
# [2] = tested on: prepulse inhibition of startle in mice; assay: Prepulse inhibition of the startle response in mice (Apomorphine-induced disturbance); type: in vivo, mouse; conditions: SHK mice, 1 mg/kg, 60 min before test
# Method: Antipsychotic activity of compounds of the general formula 1 in “Prepulse inhibition of the startle response in mice” test. Mice of SHK line weighing about 24-30 g were used in the test. Experiments were carried out during light period of animal's diurnal. Apomorphine hydrochloride and Haloperidol were received from Sigma Chemicals Company, (USA). Apomorphine hydrochloride was dissolved in 0.1% solution of ascorbic acid prepared with sterilized water; it was administered subcutaneously 15 minutes before the test. Haloperidol was dissolved in sterilized water using emulsifier Twin 80, it was administered intraperitoneally 60 minutes before the test. The compound 1.1(1) was dissolved in sterilized water, it was introduced subcutaneously 60 minutes before the test. Injection volume was 10 ml/kg. Solution of ascorbic acid prepared with sterilized water and Twin 80 were injected to control group of animals.
# The test instrument consisted of a chamber made of transparent plexiglass (manufacturer—Columbia Instruments Company, USA) and placed on a platform the latter was lodged inside the sound insulating chamber. High frequency sound column transmitting acoustic stimulus was located 2 cm away from the platform. […] Inhibition of the startle in reply to prepulse-plus-pulse stimulus was calculated in percentage towards amplitude of startle in response to isolated pulse stimulus. […]
# [3] = tested on: food consumption (appetite) in rats; assay: Appetite control test in food-deprived rats; type: in vivo, rat; conditions: Vistar rats, 16 h food deprivation, 10 mg/kg intraperitoneally 60 min before test (FIG. 2 legend: 1 mg/kg)
# Method: Appetite control test. Male rats of Vistar line weighing 230-360 g were housed in standard home cages with water and food available with the exception of short periods of food deprivation (16 hs) just before the Appetite test. The Appetite test was carried out in individual cages with overhead cover made of wire in the niches of which a portion of food granules was inserted. Mass of the granules was examined every 30 minutes for 3 h. On the basis of these measurements food consumption was estimated and stated in grams of food per kilogram of body mass. Placebo and the compound 1.1(1) (dose 10 mg/kg) were injected intraperitoneally 60 minutes before the test. Each experimental group of animals consisted of 10 rats. Compound was dissolved in sterilized water. The injection volume was 10 ml/kg. Intact animals which were not undergone food deprivation, and animals after food deprivation, but injected with sterilized water, were used as control. […]
# 5-HT6 receptor [4] = target: T1, 5-HT6 receptor; assay: Competitive radioligand binding ([3H] Lysergic acid diethylamide) to membranes of HeLa cells expressing recombinant human 5-HT6 receptors
# Method: Activity determination of serotonin 5-HT6 receptor antagonists of the general formula 1 in the setting of competitive binding to serotonin 5-HT6 receptors.
# Screening of the disclosed compounds for their potential ability to interact with serotonin 5-HT6 receptors was carried out by method of radioligand binding. For this purpose membrane species were prepared from expressing recombinant human 5-HT6 receptors HeLa cells by means of their homogenization in glass homogenizer with subsequent separation of plasmatic membranes from cell nucli, mitochondria's and cell wreckages by differential centrifugation. Determination of tested compounds binding with 5-HT6 receptors was carried out according to the method described in [Monsma F J Jr, Shen Y, Ward R P, Hamblin M W and Sibley D R, Cloning and expression of a novel serotonin receptor with high affinity for tricyclic psychotropic drugs. Mol Pharmacol. 43:320-327, 1993]. […] After incubation the samples were filtered in vacuo on glass-microfiber filters G/F (Millipor, USA), filters were washed three times with cold solution of medium and radioactivity was measured by scintillation counter MicroBeta 340 (PerkinElmer, USA). […] Binding of tested compounds to the receptor was determined by their ability to displace the radioligand and expressed in percent of displacement. The percent of displacement was calculated according to the following equation:
# [formula] wherein: TA—was overall radioactivity in the presence of radioligand only, CA—was radioactivity in the presence of radioligand and tested compound and NA—was radioactivity in the presence of radioligand and Serotonin (5 μM).
Compound,inhibition at 10 µM (5-HT6 receptor [1]) [%],further results
CNc1nn2c(-c3ccccc3)cc(C)nc2c1S(=O)(=O)c1ccccc1 [1(2)],90,–
Cc1ccc(S(=O)(=O)c2c(Nc3ccccc3)nn3c(C)c(C)c(C)nc23)cc1 [1(1)],77,–
"O=C(CCCN1CCC(O)(c2ccc(Cl)cc2)CC1)c1ccc(F)cc1 [Haloperidol, reference compound]",–,effect on disturbance of prepulse inhibition of startle caused by Apomorphine [2]: prevented disturbance of prepulse inhibition of startle caused by Apomorphine
Cc1cc(C)n2nc(NCCCN(C)C)c(S(=O)(=O)c3ccccc3)c2n1 [1(10)],94,–
Cc1cc(C)n2nc(N(C)CCN(C)C)c(S(=O)(=O)c3ccccc3)c2n1 [1(9)],88,–
Cc1ccc(Nc2nn3c(C)cc(C)nc3c2S(=O)(=O)c2ccc(C)cc2)cc1 [1(14)],70,–
CNc1nn2c(C)cc(-c3ccccc3)nc2c1S(=O)(=O)c1ccccc1 [1(3)],91,–
Cc1cc(C)n2nc(N3CCN(C(=O)OC(C)(C)C)CC3)c(S(=O)(=O)c3ccccc3)c2n1 [1(11)],63,–
Cc1cc(C)n2nc(NCCN(C)C)c(S(=O)(=O)c3ccccc3)c2n1 [1(8)],91,–
Cc1cc(C)n2nc(N3CCNCC3)c(S(=O)(=O)c3ccccc3)c2n1 [1(12)],76,–
"Cc1cc(C)n2nc(N(C)C)c(S(=O)(=O)c3cccc(F)c3)c2n1 [1.1(6), 2-dimethylamino-5,7-dimethyl-3-(3-fluorophenylsulfonyl)pyrazolo[1,5-a]pyrimidine]",97,–
"Cc1cc(C)n2nc(N(C)C)c(S(=O)(=O)c3ccc(F)cc3)c2n1 [1.1(4), 2-dimethylamino-5,7-dimethyl-3-(4-fluorophenylsulfonyl)pyrazolo[1,5-a]pyrimidine]",95,–
"Cc1cc(C)n2nc(N(C)C)c(S(=O)(=O)c3cccc(Cl)c3)c2n1 [1.1(8), 2-dimethylamino-5,7-dimethyl-3-(3-chlorophenylsulfonyl)pyrazolo[1,5-a]pyrimidine]",96,–
Cc1cc(C)n2nc(N3CCN(C)CC3)c(S(=O)(=O)c3ccccc3)c2n1 [1(13)],80,–

# Further lines, with some results ahead:
inhibition at 10 µM (5-HT6 receptor [1]) [%],Compound,further results
97,CNc1nn2c(C)cc(C)nc2c1S(=O)(=O)c1ccc(F)c(Cl)c1 [1.1(9)],IC50 (5-HT6 receptor [1]): 4 nM
97,"CNc1nn2c(C)cc(C)nc2c1S(=O)(=O)c1cccc(F)c1 [1.1(5), 2-methylamino-5,7-dimethyl-3-(3-fluorophenylsulfonyl)pyrazolo[1,5-a]pyrimidine]",IC50 (5-HT6 receptor [1]): 5 nM
98,CNc1nn2c(C)cc(C)nc2c1S(=O)(=O)c1cccs1 [1(6)],–
104,CCNc1nn2c(C)cc(C)nc2c1S(=O)(=O)c1ccccc1 [1(7)],–
86,"Cc1cc(C)n2nc(N(C)C)c(S(=O)(=O)c3ccccc3)c2n1 [1.1(2), 2-dimethylamino-5,7-dimethyl-3-(phenylsulfonyl)pyrazolo[1,5-a]pyrimidine]",IC50 (5-HT6 receptor [1]): 1180 nM
99,"CNc1nn2c(C)cc(C)nc2c1S(=O)(=O)c1ccc(F)cc1 [1.1(3), 2-methylamino-5,7-dimethyl-3-(4-fluorophenylsulfonyl)pyrazolo[1,5-a]pyrimidine]",IC50 (5-HT6 receptor [1]): 6 nM
95,CNc1nn2c(C)cc(C)nc2c1S(=O)(=O)c1cccnc1 [1(5)],–
100,"CNc1nn2c(C)cc(C)nc2c1S(=O)(=O)c1cccc(Cl)c1 [1.1(7), 2-methylamino-5,7-dimethyl-3-(3-chlorophenylsulfonyl)pyrazolo[1,5-a]pyrimidine]",IC50 (5-HT6 receptor [1]): 2 nM
97,CNc1nn2c(C)cc(C)nc2c1S(=O)(=O)c1ccncc1 [1(4)],–
77,"CNc1nn2c(C)cc(C)nc2c1S(=O)(=O)c1ccccc1 [1.1(1), 2-methylamino-5,7-dimethyl-3-(phenylsulfonyl)pyrazolo[1,5-a]pyrimidine]","IC50 (5-HT6 receptor [1]): 5 nM; effect on appetite (food consumption) after food deprivation [3]: capable to prevent appetite rising in rats; effect on disturbance of prepulse inhibition of startle caused by Apomorphine [2]: prevented disturbance of prepulse inhibition of startle caused by Apomorphine; IC50 (5-HT6 receptor [4]; 1.5 nM [3H] Lysergic acid diethylamide, 120 min at 37° C., read-out: IC50 in the setting of competitive binding): 0.511 nM; Ki (5-HT6 receptor [4]; 1.5 nM [3H] Lysergic acid diethylamide, 120 min at 37° C., read-out: Ki in the setting of competitive binding): 0.237 nM; activity of serotonin 5-HT6 receptor antagonist (5-HT6 receptor [4]; quantity not specified, differs from Table 4): 4.61 nM"
